Source: EPA's ToxValDB 9.5 (doi:10.2903/j.efsa.2009.205r)

How the values were obtained:
[1] = test system: Bibionidae; conditions: chronic/long-term; duration: 28 days
[2] = test system: Daphnia magna; conditions: chronic/long-term; duration: 21 days; reproduction
[3] = test system: Landoltia sp.; conditions: chronic/long-term; duration: 14 days
[4] = test system: Oncorhynchus mykiss
[5] = test system: Plant; conditions: chronic/long-term; duration: 14 days
[6] = test system: Tagia sp.; conditions: for LC50: acute, duration: 14 days, mortality
[7] = test system: Anas platyrhynchos
[8] = test system: Apis mellifera; conditions: acute, mortality
[9] = test system: Colinus virginianus
[10] = test system: Rattus norvegicus
[11] = test system: Typhlodromus pyri; test: LR50; higher = less toxic; conditions: not reported; mortality

CC(Oc1ccc(Oc2cnc3cc(Cl)ccc3n2)cc1)C(=O)O (stereo not drawn) [Quizalofop]
NOEC [1]: 35.7 mg/L | NOEC [2]: 0.82 mg/L | NOEC [3]: 3.2 mg/L | LC50 ([4]; acute, duration: 96 hours, mortality): > 100 µg/mL | NOEC ([4]; chronic/long-term, duration: 28 days, growth): 46.2 mg/L | NOEC [5]: 0.094 mg/L | LC50 [6]: 948 mg/kg | NOEC ([6]; chronic/long-term): > 50 mg/kg

C[C@@H](Oc1ccc(Oc2cnc3cc(Cl)ccc3n2)cc1)C(=O)OCC1CCCO1 (stereo partly drawn) [Quizalofop P tefuryl]
LD50 ([7]; acute, oral, unspecified, mortality): > 2150 mg/kg | NOEC ([7]; reproductive): 68.7 mg/kg-day | LC50 ([7]; short-term, oral, feed, mortality): > 259 mg/kg-day | LD50 ([8]; dermal): > 100 µg/piece | LD50 ([8]; oral, unspecified): 16.8 µg/piece | LC50 ([9]; acute, oral, diet, mortality): > 487 mg/kg-day | LD50 ([9]; acute, oral, mortality): > 2150 mg/kg | NOEC ([9]; reproduction developmental): 69.4 mg/kg-day | LD50 ([10]; acute, oral, mortality): 1010 mg/kg-day | NOAEL ([10]; chronic, duration: 2 years, oral, diet): 1.3 mg/kg-day | NOAEL ([10]; reproduction developmental, mortality): 10 mg/kg-day | NOAEL ([10]; reproduction developmental, reproduction): 16.9 mg/kg-day | NOAEL ([10]; subchronic, duration: 90 days, oral, organ weight): 1.7 mg/kg-day | LC50 [6]: 16.9 mg/kg | LR50 [11]: < 100 g/ha
